Measurements from patent US20110178131A1, “Compounds Which Have Activity At M1 Receptor And Their Uses In Medicine” (priority 2008, published 2011).
Structures can show the parent of a compound that is named as a salt.

Target: T1, human muscarinic M1 receptors (Homo sapiens, UniProt P11229)
T1 construct: expressed in transfected cells
T1 sequence (P11229 1-460): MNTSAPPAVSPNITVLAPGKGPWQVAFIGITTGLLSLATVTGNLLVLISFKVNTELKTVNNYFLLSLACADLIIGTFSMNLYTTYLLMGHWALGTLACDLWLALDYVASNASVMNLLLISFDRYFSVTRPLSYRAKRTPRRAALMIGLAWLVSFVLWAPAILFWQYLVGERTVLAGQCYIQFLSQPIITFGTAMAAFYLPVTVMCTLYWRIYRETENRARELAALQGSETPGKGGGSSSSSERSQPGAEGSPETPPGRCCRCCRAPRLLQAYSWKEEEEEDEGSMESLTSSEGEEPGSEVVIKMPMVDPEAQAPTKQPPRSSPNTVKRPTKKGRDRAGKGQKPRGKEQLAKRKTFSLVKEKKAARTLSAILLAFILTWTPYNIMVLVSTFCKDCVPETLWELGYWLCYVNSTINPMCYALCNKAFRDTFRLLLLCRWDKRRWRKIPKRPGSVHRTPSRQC
Test: FLIPR experiments on M1 receptors (calcium response, agonism)
Format: cell-based
Conditions: CHO-M1 cells
Protocol: FLIPR Experiments on M1 Receptors to Determine a Agonist/Antagonist Potency
Compounds of the invention may be characterized in a functional assay to determine their ability to activate the intracellular calcium pathway in CHO cells with stable expression of human muscarinic M1 receptors using FLIPR (Fluorometric Imaging Plate Reader) technology. Briefly, CHO-M1 cells were plated (15,000/well) and allowed to grow overnight at 37 degrees. Media were removed and 30 μL loading buffer (HBSS with 2.5 mM probenicid, 2 μM Fluo-4, 500 μM Brilliant Black, pH 7.4) was added. After incubation at 37 degrees for 90 minutes, 10 μL of the assay buffer (HBSS with 2.5 mM probenecid, pH 7.4) containing test compounds was added to each well on the FLIPR instrument. Calcium response was monitored to determine agonism. […] Calcium response was then monitored again to determine compound's antagonism to acetylcholine. […] Results were imported into ActivityBase data analysis suite (ID Business Solution Inc., Parsippany, N.J.) where the curves were analysed by non-linear curve fitting and the resulting pEC50/fpKi were calculated. The maximum asymptotes of agonist compounds were calculated as percentage of maximum FLIPR response induced by carbamoylcholine chloride added as control on the same compound plates.

Structure (SMILES): COCC1CCC(N2CCC(n3c(=O)oc4ccc(C#N)cc43)CC2)CC1 (mixture of isomers) [Example 1, 3-(1-{4-[(Methyloxy)methyl]cyclohexyl}-4-piperidinyl)-2-oxo-2,3-dihydro-1,3-benzoxazole-5-carbonitrile hydrochloride]
- EC50 (FLIPR calcium response, agonism, read-out: average pEC50 at the muscarinic M1 receptor (converted)): < 3.16 µM
- Emax (maximum asymptote as percentage of maximum FLIPR response induced by carbamoylcholine chloride, read-out: intrinsic activity): > 50%
